Experiment [1] addresses cloned human P2Y1 receptors (Homo sapiens (Human), UniProt P47900). Nature of the experiment: Binding Assay B: Scintillation Proximity Assay (SPA) for P2Y1 binding. The conditions noted are these: SPA, [33P] 2MeS-ADP displacement; read-out: P2Y1 Ki (nM) using binding assay B. The procedure: A SPA membrane binding assay was used to identify inhibitors of [^33P] […] Binding reactions were performed in 384-well OptiPlates (PerkinElmer Life Sciences, Cat #6007299) in a volume of 50 μL containing ˜15 fmol of P2Y1 receptor (1.7 μg of total protein), 0.3 nM [^33P] […] Reactions were allowed to proceed to completion at room temperature for 1 hour followed by centrifugation of the plate for 5 min. About 40 μL of the aqueous solution was aspirated. Plates were sealed and the [^33P]

For experiment [2], the system named is human platelet rich plasma (PRP). Briefly: ADP induced platelet aggregation assay. The note with it: Homo sapiens, Platelet, read-out: PA IC50 (μM) @ 10 μM ADP, platelet aggregation induced by 10 μM ADP, human PRP.

A word on the Ki: it is the dissociation constant of the complex between target and ligand, obtained from inhibition or displacement. Usually IC50 stands for the concentration that inhibits the measured activity by half.

Structures can show the parent of a compound that is named as a salt.

Sequence of cloned human P2Y1 receptors (P47900 whole entry): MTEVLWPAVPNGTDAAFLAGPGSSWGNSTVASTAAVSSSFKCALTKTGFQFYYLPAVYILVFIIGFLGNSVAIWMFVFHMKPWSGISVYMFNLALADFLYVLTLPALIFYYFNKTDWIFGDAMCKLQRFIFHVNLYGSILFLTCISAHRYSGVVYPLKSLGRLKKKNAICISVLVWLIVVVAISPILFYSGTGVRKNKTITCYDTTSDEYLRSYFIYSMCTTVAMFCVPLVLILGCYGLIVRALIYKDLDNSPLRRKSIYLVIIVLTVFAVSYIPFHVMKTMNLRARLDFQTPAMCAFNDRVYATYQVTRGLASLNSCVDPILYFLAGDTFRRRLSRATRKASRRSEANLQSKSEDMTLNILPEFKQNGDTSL

For the compound `CC(C)(C)CN1CCC2(CC1)CN(c1ccccc1NC(=O)Nc1ccc(OC(F)(F)F)cc1)c1c(O)cc(F)c(-c3nc4cc(Cl)ccc4s3)c12` [Example 137, 1-(2-(4-(5-Chlorobenzo[d]thiazol-2-yl)-5-fluoro-7-hydroxy-1′-neopentylspiro[indoline-3,4′-piperidin]-1-yl)phenyl)-3-(4-(trifluoromethoxy)phenyl)urea], in experiment [1], the Ki is 44.7 nM. Moreover, in experiment [2], the IC50 is 0.4 µM.

`CC(C)(C)CN1CCC2(CC1)CN(c1ccccc1NC(=O)Nc1csc(C(F)(F)F)n1)c1c(O)cc(F)c(-c3ccc(Cl)cc3)c12` [Example 158, 1-(2-(4-(4-Chlorophenyl)-5-fluoro-7-hydroxy-1′-neopentylspiro[indoline-3,4′-piperidin]-1-yl)phenyl)-3-(2-(trifluoromethyl)thiazol-4-yl)urea]: the Ki in experiment [1] came to 15.4 nM. The IC50 in experiment [2] turned out to be 0.3 µM.

`CC(C)c1nc(NC(=O)Nc2ccccc2N2CC3(CCN(CC(C)(C)C)CC3)c3c(C(F)(F)F)ccc(O)c32)cs1` [Example 28, 1-(2-(7-Hydroxy-1′-neopentyl-4-(trifluoromethyl)spiro[indoline-3,4′-piperidine]-1-yl)phenyl)-3-(2-isopropylthiazol-4-yl)urea]: in experiment [1], the Ki was 6.6 nM. Further, the IC50 in experiment [2] is 0.8 µM.

Consider `CC(C)CN1CCCC1c1ccc(NC(=O)Nc2ccccc2N2CC3(CCN(CC(C)(C)C)CC3)c3c(F)c(F)cc(O)c32)cc1` (stereo not shown) [Example 104, 1-(2-(4,5-Difluoro-7-hydroxy-1′-neopentylspiro [indoline-3,4′-piperidine]-1-yl)phenyl)-3-(4-(1-isobutylpyrrolidin-2-yl)phenyl)urea], for which the Ki in experiment [1] is 17 nM. For the same compound, the concentration for half-maximal inhibition (IC50) in experiment [2] was determined as 1 µM.

Regarding `CC(C)(C)CN1CCC2(CC1)CN(c1ccccc1NC(=O)Nc1ccc(C(C)(C)C)cc1)c1c(O)cc(F)c(F)c12` [Example 9, 1-(4-tert-Butylphenyl)-3-(2-(4,5-difluoro-7-hydroxy-1′-neopentylspiro [indoline-3,4′-piperidine]-1-yl)phenyl)urea], the inhibitory constant (Ki) in experiment [1] is 10.5 nM. In experiment [2], the IC50 turned out to be 0.9 µM.

Take `COc1ccc2nc(NC(=O)Nc3ccccc3N3CC4(CCN(CC(C)(C)C)CC4)c4c(-c5nc6cc(F)ccc6s5)ccc(O)c43)sc2c1` [Example 146, 1-(2-(4-(5-Fluorobenzo[d]thiazol-2-yl)-7-hydroxy-1′-neopentylspiro[indoline-3,4′-piperidin]-1-yl)phenyl)-3-(6-methoxybenzo[d]thiazol-2-yl)urea]: the Ki in experiment [1] came out at 11.2 nM. The IC50 in experiment [2] was found to be 0.6 µM.

As to `CC(C)(C)CN1CCC2(CC1)CN(c1ccccc1NC(=O)Nc1nc3ccc(Cl)nc3s1)c1c(O)ccc(C(F)(F)F)c12` [Example 175, 1-(5-Chlorothiazolo[5,4-b]pyridin-2-yl)-3-(2-(7-hydroxy-1′-neopentyl-4-(trifluoromethyl)spiro[indoline-3,4′-piperidine]-1-yl)phenyl)urea], the Ki in experiment [1] was 13.4 nM. Besides, the IC50 in experiment [2] stood at 0.5 µM.

As for `COC(=O)c1ccc(O)c2c1C1(CCN(CC(C)(C)C)CC1)CN2c1ccccc1NC(=O)Nc1nc2ccc(F)cc2s1` [Example 77, Methyl 1-(2-(3-(6-fluorobenzo[d]thiazol-2-yl)ureido)phenyl)-7-hydroxy-1′-neopentylspiro[indoline-3,4′-piperidine]-4-carboxylate], the Ki in experiment [1] came out at 8.7 nM. Further, the IC50 in experiment [2] is 0.3 µM.

Turning to `CC(C)(C)CN1CCC2(CC1)CN(c1ccccc1NC(=O)Nc1nc3c(s1)CCC3)c1c(O)ccc(Cl)c12` [Example 46, 1-(2-(4-Chloro-7-hydroxy-1′-neopentylspiro[indoline-3,4′-piperidine]-1-yl)phenyl)-3-(5,6-dihydro-4H-cyclopenta[d]thiazol-2-yl)urea, TFA], the Ki in experiment [1] stood at 6.2 nM. Besides, the IC50 in experiment [2] was 0.3 µM.

For `CC(C)CN1CCc2nc(NC(=O)Nc3ccccc3N3CC4(CCN(CC(C)(C)C)CC4)c4c(Cl)ccc(O)c43)sc2C1` [Example 74, 1-(2-(4-Chloro-7-hydroxy-1′-neopentylspiro[indoline-3,4′-piperidine]-1-yl)phenyl)-3-(5-isobutyl-4,5,6,7-tetrahydrothiazolo[5,4-c]pyridin-2-yl)urea], the Ki in experiment [1] is 10.3 nM. In experiment [2], the IC50 is 0.2 µM.

`CC(C)(C)CN1CCC2(CC1)CN(c1ccccc1NC(=O)Nc1nc3ccc(F)cc3s1)c1c(O)ccc(C(F)(F)F)c12` [Example 3, 1-(6-Fluorobenzo[d]thiazol-2-yl)-3-(2-(7-hydroxy-1′-neopentyl-4-(trifluoromethyl)spiro[indoline-3,4′-piperidine]-1-yl)phenyl)urea]: the Ki in experiment [1] is 8.9 nM. The IC50 in experiment [2] was found to be 0.1 µM.

Regarding `CC(C)(C)CN1CCC2(CC1)CN(c1ccccc1NC(=O)Nc1nc3ccc(F)cc3s1)c1c(O)ccc(C#N)c12` [Example 81, 1-(2-(4-Cyano-7-hydroxy-1′-neopentylspiro[indoline-3,4′-piperidine]-l-yl)phenyl)-3-(6-fluorobenzo[d]thiazol-2-yl) urea, trifluoroacetic acid salt], the Ki in experiment [1] worked out at 5 nM. In experiment [2], the IC50 was 0.6 µM.

For the compound `CC(C)(C)CN1CCC2(CC1)CN(c1ccccc1NC(=O)Nc1nc3ccc([N+](=O)[O-])cc3s1)c1c(O)ccc(Cl)c12` [Example 51, 1-(2-(4-Chloro-7-hydroxy-1′-neopentylspiro[indoline-3,4′-piperidine]-1-yl)phenyl)-3-(6-nitrobenzo[d]thiazol-2-yl)urea, TFA], the Ki in experiment [1] was found to be 10.8 nM. In experiment [2], the half-maximal inhibitory concentration (IC50) was determined as 0.5 µM.

For the compound `CC(C)(C)CN1CCC2(CC1)CN(c1ccccc1NC(=O)Nc1ccc(OC(F)(F)F)cc1)c1c(O)ccc(-c3nc4cccc(Cl)c4s3)c12` [Example 123, 1-(2-(4-(7-Chlorobenzo[d]thiazol-2-yl)-7-hydroxy-1′-neopentylspiro[indoline-3,4′-piperidin]-1-yl)phenyl)-3-(4-(trifluoromethoxy)phenyl)urea], the Ki in experiment [1] turned out to be 32.5 nM. Besides, the IC50 in experiment [2] stood at 0.6 µM.

`COc1ccc2nc(NC(=O)Nc3ccccc3N3CC4(CCN(CC(C)(C)C)CC4)c4c(F)ccc(O)c43)sc2c1` [Example 36, 1-(2-(4-Fluoro-7-hydroxy-1′-neopentylspiro[indoline-3,4′-piperidine]-1-yl)phenyl)-3-(6-methoxybenzo[d]thiazol-2-yl)urea]: the Ki in experiment [1] was 7.9 nM. Moreover, in experiment [2], the IC50 was determined as 0.9 µM.

Regarding `CC(C)CN1CCCC1c1ccc(NC(=O)Nc2ccccc2N2CC3(CCN(CC(C)(C)C)CC3)c3c(Cl)ccc(O)c32)cc1` (stereo not shown) [Example 57, 1-(2-(4-Chloro-7-hydroxy-1′-neopentylspiro[indoline-3,4′-piperidine]-1-yl)phenyl)-3-(4-(1-isobutylpyrrolidin-2-yl)phenyl)urea], in experiment [1], the Ki stood at 10.4 nM. Also, the IC50 in experiment [2] was 0.2 µM.

In the case of `CC(C)(C)CN1CCC2(CC1)CN(c1ccccc1NC(=O)Nc1ccc(C(F)(F)F)cc1)c1c(O)ccc(F)c12` [Example 37, 1-(2-(4-Fluoro-7-hydroxy-1′-neopentylspiro[indoline-3,4′-piperidine]-1-yl)phenyl)-3-(4-(trifluoromethyl)phenyl)urea], the Ki in experiment [1] came to 7.2 nM. Besides, the half-inhibitory concentration (IC50) in experiment [2] came to 1 µM.

As to `COc1ccc2nc(-c3ccc(O)c4c3C3(CCN(CC(C)(C)C)CC3)CN4c3ccccc3NC(=O)Nc3ccc(OC(F)(F)F)cc3)sc2c1` [Example 130, 1-(2-(7-Hydroxy-4-(6-methoxybenzo[d]thiazol-2-yl)-1′-neopentylspiro[indoline-3,4′-piperidin]-1-yl)phenyl)-3-(4-(trifluoromethoxy)phenyl)urea], the Ki in experiment [1] was 16.8 nM. Besides, in experiment [2], the IC50 was determined as 0.6 µM.

For `CC(C)(C)CN1CCC2(CC1)CN(c1ccccc1NC(=O)Nc1ccc(OC(F)(F)F)cc1)c1c(O)ccc(C(F)(F)F)c12` [Example 10, 1-(2-(7-Hydroxy-1′-neopentyl-4-(trifluoromethyl)spiro[indoline-3,4′-piperidine]-1-yl)phenyl)-3-(4-(trifluoromethoxy)phenyl)urea], the Ki in experiment [1] was 4.5 nM. The IC50 in experiment [2] is 0.1 µM.

With `CC(C)(C)CN1CCC2(CC1)CN(c1ccccc1NC(=O)Nc1nc3ccc(Cl)nc3s1)c1c(O)ccc(F)c12` [Example 168, 1-(5-Chlorothiazolo[5,4-b]pyridin-2-yl)-3-(2-(4-fluoro-7-hydroxy-1′-neopentylspiro-[indoline-3,4′-piperidine]-1-yl)phenyl)urea], the inhibitory constant (Ki) in experiment [1] was found to be 8.6 nM. Further, in experiment [2], the 50% inhibitory concentration (IC50) was determined as 0.3 µM.

With `CC(C)(C)CN1CCC2(CC1)CN(c1ccccc1NC(=O)Nc1csc(Cl)n1)c1c(O)ccc(-c3nc4ccc(Cl)cc4s3)c12` [Example 113, 1-(2-(4-(6-Chlorobenzo[d]thiazol-2-yl)-7-hydroxy-1′-neopentylspiro[indoline-3,4′-piperidin]-1-yl)phenyl)-3-(2-chlorothiazol-4-yl)urea], the Ki in experiment [1] was determined as 7.1 nM. Besides, in experiment [2], the IC50 was determined as 0.4 µM.

Turning to `CC(C)(C)CN1CCC2(CC1)CN(c1ccccc1NC(=O)Nc1nc3ccc(Cl)cc3s1)c1c(O)ccc(-c3nc4ccc(F)cc4s3)c12` [Example 145, 1-(6-Chlorobenzo[d]thiazol-2-yl)-3-(2-(4-(6-fluorobenzo[d]thiazol-2-yl)-7-hydroxy-1′-neopentylspiro[indoline-3,4′-piperidin]-1-yl)phenyl)urea], the Ki in experiment [1] was 18.4 nM. Besides, the IC50 in experiment [2] was determined as 0.6 µM.

On to `COc1ccc2nc(NC(=O)Nc3ccccc3N3CC4(CCN(CC(C)(C)C)CC4)c4c(F)ccc(O)c43)sc2n1` [Example 173, 1-(2-(4-Fluoro-7-hydroxy-1′-neopentylspiro[indoline-3,4′-piperidine]-1-yl)phenyl)-3-(5-methoxythiazolo[5,4-b]pyridin-2-yl)urea], for which, in experiment [1], the Ki was determined as 3.8 nM. Also, in experiment [2], the IC50 worked out at 0.3 µM.
